# From patent publication US20190133997A1, “ARTEMISININ ANALOG, AND USE, METHOD, AND COMPOSITION FOR PROMOTING LIPID CATABOLISM AND IMPROVING SUGAR METABOLISM” (FUDAN UNIVERSITY, priority 2016, published 2019)
# What was measured:
# [1] = test system: 3T3-L1 white preadipocytes; test: Artemether-induced browning of 3T3-L1 white preadipocytes during differentiation (morphology, UCP1 mRNA by Real time qPCR); assay type: cell-based; settings: vs control, concentration-dependent tendency
# Description: 2.5×10^5 3T3-L1 white preadipocytes were seeded in a 3.5 cm cell culture dish, and cultured for 3 days in a maintenance medium. Cells proliferated to contact inhibition. 48 hours after the contact inhibition was reached, the medium was changed to induced differentiation medium, and the induced differentiation mixture including 0.5 mMol/L 3-isobutyl-1-methylxanthine (Mix), 1 μMol/L dexamethasone (Dex) and 1 μg/ml insulin (Insulin) was added. The induced differentiation mixture is referred to as MDI for short. The day of adding MDI was defined as Day 0 of differentiation. After 2 days of culture in the above medium, fresh induced differentiation medium was replaced, and 1 μg/ml insulin was added to the medium. After another 2 days of culture, the fresh induced differentiation medium was replaced, and the medium was changed every other day until the culture was differentiated to Day 8. […]
# 3T3-L1 differentiated to mature was induced in a 3.5 cm culture dish, with the method of differentiation referring to Method 1.4.1. […] The precipitate was dissolved in 60 μl DEPC water, and quantified by Colibri Tepertec and stored at −80° C. […]
# The relative amount of mRNA was calculated according to the AACT method, with 18S being used as an internal reference. […]
# high fat-fed mice = test: Intraperitoneal artemether, adipose tissue in high fat-fed mice; assay type: in vivo, Male C57BL/6J mice; settings: high-fat diet, intraperitoneal 20 mg/kg twice a week, eight weeks
# Description: The mice were breeded in the SPF animal laboratory of the Laboratory Animal Center of Fudan University at a room temperature of 21° C.-23° C. with a 12-hour light/dark cycle. […] When the mice were grown to 8-week old, they were randomly divided into a control group and an administration group, with 8 mice in each group. While the mice were fed with a high-fat diet, artemether was injected intraperitoneally. Artemether for intraperitoneal injection was stored at 4° C. in coconut oil at a storage concentration of 6 mg/ml (20 mMol/L), and protected from light. Mice in administration group were injected with artemether at a dose of 20 mg/kg weight. Administration was twice a week for eight weeks. The mice were sacrificed by cervical dislocation and were dissected, and inguinal fat (Inguinal, subcutaneous fat), epididymal fat (Gonadal, visceral fat) and brown fat in the interscapular region (BAT, classic brown fat) were removed, weighed and fixed. The histological analysis of adipose tissue was commissioned by Shanghai Saige Biotech Co., Ltd., which included the steps of fixing, paraffin embedding, sectioning and HE staining.
# ob/ob mice = test: Intraperitoneal artemether, weight gain in diabetic ob/ob mice; assay type: in vivo, Male ob/ob mice; settings: intraperitoneal 20 mg/kg twice a week, eight weeks
# Description: The ob/ob mice were breeded in the SPF animal laboratory of the Laboratory Animal Center of Fudan University at a room temperature of 21° C.-23° C. with a 12-hour light/dark cycle. When the mice were grown to 4-week old, they were randomly divided into a control group and an administration group, with 4 mice in each group. The administration group was injected intraperitoneally with artemether. Artemether for intraperitoneal injection was stored at 4° C. in coconut oil at a storage concentration of 6 mg/ml (20 mMol/L), and protected from light. Ob/ob mice in administration group were injected with artemether at a dose of 20 mg/kg weight. Administration was twice a week for eight weeks, and the weight of the mice was recorded weekly.
# [2] = Intraperitoneal artemether, glucose metabolism in healthy lean mice; assay type: in vivo, Male C57BL/6J mice; settings: intraperitoneal 20 mg/kg twice a week, eight weeks
# Description: The mice were breeded in the SPF animal laboratory of the Laboratory Animal Center of Fudan University at a room temperature of 21° C.-23° C. with a 12-hour light/dark cycle. When the mice were grown to 8-week old, they were randomly divided into a control group and an administration group, with 8 mice in each group. Artemether for intraperitoneal injection was stored at 4° C. in coconut oil at a storage concentration of 6 mg/ml (20 mMol/L), and protected from light. Mice in administration group were injected with artemether at a dose of 20 mg/kg weight, and mice in control group were injected with 100 μl coconut oil. Administration was twice a week for eight weeks.
# The mice were fasted for 12-16 hours and injected intraperitoneally with glucose injection at a dose of […]. At 0 min, 30 min, 60 min, 90 min, and 120 min after injection, blood was collected from the tail vein, and blood glucose was measured with OneTouch ExtraEasy glucometer and OneTouch ExtraEasy blood glucose test strips and the results were recorded.
# Insulin was injected intraperitoneally at a dose of 0.75 U/kg weight. At 0 min, 15 min, 30 min, 45 min and 60 min after injection, blood was collected from the tail vein, and blood glucose was measured.
smiles,measurement,setting,value
CO[C@H]1O[C@@H]2O[C@@]3(C)CC[C@H]4[C@H](C)CC[C@@H]([C@H]1C)[C@@]24OO3 [artemether],mRNA level of UCP1,"[1]; 3T3-L1, different concentrations of ART, Real time qPCR, 18S reference",significantly up-regulated
same,cell morphology of 3T3-L1,"[1]; artemether 5, 10 or from Day 0 of differentiation to maturity",exhibited typical brown adipocyte-like characteristics
same,adipocyte size (sectioning and HE staining),high fat-fed mice,significantly smaller than that of mice in control group
same,volume of adipose tissue,high fat-fed mice,significantly smaller than that of mice in control group
same,weight of adipose tissue,high fat-fed mice,significantly smaller than that of mice in control group
same,weight gain of ob/ob mice,ob/ob mice,significantly slower than that of mice in control group
same,weight of ob/ob mice,ob/ob mice,"tended to be lower than that of mice in control group, but was not statistically different"
same,glucose tolerance curve,[2],did not differ from that of mice in control group
same,insulin tolerance curve,[2],did not differ from that of mice in control group
